Data on two compounds can be found in patent US9241924B2, “Compositions of 5-ethyl-2-{4-[4-(4-tetrazol-1-yl-phenoxymethyl)-thiazol-2-yl]-piperidin-1-yl}-pyrimidine” (CYMABAY THERAPEUTICS, INC., priority 2010, dated 2016).

Data set [1] in a line: In vitro dissolution of HPMCAS dispersions (Table 7b, simulated gastric fluid). Format: physicochemical. To be noted: dose 200 μg/mL, initial ninety minutes. The procedure:
(§1) Samples were weighed, dissolved in the buffer system, centrifuged, and the supernatant analyzed by HPLC at 10, 20, 40, and 90 minutes.
(§2) Tables 7a and 7b and FIG. 6 compares in vitro dissolution performance of Compound A:CAP SDD with that of crystalline of Compound A, HPMCAS-MG, and HPMCAS-HG.

The nature of data set [2]: Non-sink dissolution of melt extruded formulations in simulated gastric fluid. Format: physicochemical. How it is done: (§3) Solid dispersion formulations of Compound A in Eudragit® E PO (Formulation 2) and Kollidon® VA 64 (Formulation 3) were examined for dissolution behavior under non-sink conditions to assess oral bioavailability enhancement. Studies were conducted in three different media preparations, including: simulated gastric fluid, fed state simulated intestinal fluid and fasted state simulated intestinal fluid, which are presented in Table 2, Table 3 and Table 4 and FIG. 1, FIG. 2 and FIG. 3.

The nature of data set [3]: In vitro dissolution test in NaTC/POPC in PBS (pH 6.5). The format is physicochemical. To be noted: theoretical Cmax 200 μg/mL. How it is done:
as §1, §2

The nature of data set [4]: Non-sink dissolution of melt extruded compositions in simulated fasted state intestinal fluid. The format is physicochemical. How it is done: as §3
The nature of data set [5]: In vivo systemic exposure in male beagle dogs, oral dosing. To be noted: dog; for AUC(0-t): read-out: AUC0-24 hr. How it is done: In vivo testing was performed in male dogs to compare the systemic exposure of the 25% Compound A:CAP SDD (n=2) to that of the crystalline Compound A (n=2).
Data set [6] can be described thus: Non-sink dissolution of melt extruded compositions in simulated fed state intestinal fluid. The format is physicochemical. The procedure:
as §3

Data set [7] can be described thus: Phase 1 multiple ascending dose study, pharmacokinetics. The format is in vivo. Conditions: human, blood, po, repeat (5) daily doses, mean (±SD); for AUC(0-t): read-out: AUC0-24 h. An excerpt:
(§4) This is a single center, phase 1, double-blind, placebo-controlled, multiple ascending dose study of Compound A given orally as a reformulated tablet (spray dried dispersion, or SDD) to otherwise healthy subjects with “pre-diabetes” (impaired fasting glucose, impaired glucose tolerance, or HbA1C≧5.8), or diet-controlled type 2 diabetes mellitus. The study was designed to evaluate the safety, tolerability, pharmacokinetics (PK), and proof-of-concept pharmacodynamics of Compound A. Each dosing cohort consisted of a screening period to assess eligibility, a dosing and observational period, and a follow-up period.
The screening visit was used to assess preliminary eligibility in potential subjects who provided informed consent. Final eligibility for study enrollment was determined after check-in to the clinic on Day −3, before randomization and dosing (on Day 1). Eleven eligible subjects who successfully completed screening were enrolled into the lowest dose cohort that was yet to be filled, and randomly assigned in a double-blind fashion to receive Compound A (n=8) or matched placebo (n=3). Up to 4 additional subjects were admitted to the clinic and available as back-ups in the event that 1 of the original 11 subjects was not dosed for any reason.
Each of these study cohorts was enrolled and completed independently, and in sequential fashion. After completion of the inpatient observational period at Day 8, blinded clinical safety and laboratory parameters (including PK) were assessed in a teleconference between the Principal Investigator, or Sub-Investigator, and the Metabolex Medical Monitor, after which subject dosing assignments could have been unblinded, if necessary, for determination of dose-limiting toxicities (DLTs). If two dose-limiting toxicities (DLTs) occurred within the same treatment cohort in subjects receiving active drug, no further dose escalation would have been allowed, and the maximum tolerated dose (MTD) would have been defined by the dose in the previous cohort. Additionally, dosing may have been halted at the discretion of the sponsor depending on observed Compound A concentrations and PK parameters from the preceding cohort in context of the safety and pharmacodynamic profile of the preceding cohorts.
On Day −2, following a 10 hour overnight fast, up to 15 eligible subjects underwent a baseline MMTT administered between 9:30 and 10:15 am, for the assessment of glucose and insulin response and of total GLP-1 and glucagon. On Day −1, following a 10 hour overnight fast, up to 15 eligible subjects also underwent a baseline OGTT (75 g) administered at the identical time of day as the MMTT, for assessment of the same markers. After the baseline OGTT assessments, 11 subjects were enrolled and randomized into the current dosing cohort. Up to 4 additional subjects remained overnight to be available as back-ups in the event that 1 of the original 11 subjects was, for any reason, not dosed. If more than 11 eligible subjects meet the cohort requirements, the excess subjects may have been included in the next cohort check-in, if within the 35 day screening window and they continued to meet eligibility. On Days 1 through 5, following a 10 hour overnight fast, subjects received daily doses of Compound A or placebo exactly 2 hours earlier than the start of the baseline MMTT, under fasted conditions. The inpatient period in clinic began on Day −2 and concluded on Day 8, following the final inpatient study procedure. The following assessments were made in temporal relationship to the administration of the study drug, administered at Day 1, Time 0, unless otherwise stated: • Pharmacokinetic Blood and Urine Sampling: • Subjects randomized to Compound A or placebo underwent single dose (Day 1) and repeat dose (Day 4) PK. Compound A was measured pre-dose (t −30 and 0 min) on Day 1 and at 20 and 40 minutes, and 1, 2, 3, 4, 6, 8, 12, and 24 hours post-dose. […]

For data set [8], the system named is subjects with pre-diabetes. Nature of the data set: Phase 1c study C, pharmacodynamics (MMTT/OGTT glucose excursion, fasting glucose). The format is in vivo, human.
Source text: as §4
On Day −2, following a 10 hour overnight fast, up to 15 eligible subjects underwent a baseline MMTT administered between 9:30 and 10:15 am, for the assessment of glucose and insulin response and of total GLP-1 and glucagon. On Day −1, following a 10 hour overnight fast, up to 15 eligible subjects also underwent a baseline OGTT (75 g) administered at the identical time of day as the MMTT, for assessment of the same markers. […] Compound A was measured pre-dose (t −30 and 0 min) on Day 1 and at 20 and 40 minutes, and 1, 2, 3, 4, 6, 8, 12, and 24 hours post-dose. Compound A was measured at identical timepoints associated with the Day 4 dose, but included additional measurements at 48 and 72 hours post-dose (Day 7). […]

Where [9] appears, read: SDD tablet 25 mg orally once daily.
Setting [10] is: SDD tablet 100 mg orally once daily.
[11] abbreviates: SDD tablets 300 mg orally once daily.
The mark [12] stands for this setting: SDD tablets 600 mg orally once daily.

The term Cmax denotes the highest concentration seen after dosing. What is called Tmax is the time at which the peak concentration occurs. Take `CCc1cnc(N2CCC(c3nc(COc4ccc(-n5cnnn5)cc4)cs3)CC2)nc1` [Compound A Crystalline, 5-ethyl-2-{4-[4-(4-tetrazol-1-yl-phenoxymethyl)-thiazol-2-yl]-piperidin-1-yl}-pyrimidine]: in data set [1], the AUC90 was 1000 µg·min/mL and the Cmax90 was 8000 ng/mL. In data set [2], this compound registered an AUC0-2 hr of 321 µg·h/mL, an AUC0-4 hr of 727 µg·h/mL, an AUC0-24 hr of 4494 µg·h/mL and a Cmax of 247000 ng/mL. Moreover, in data set [2], the Tmax is 2 h. In data set [3] (NaTC/POPC in PBS pH 6.5, through 90 minutes), this compound displayed an AUC0-90 of 950 µg·min/mL. The “Cmax (μg/mL Compound A)” value in data set [3] (NaTC/POPC in PBS pH 6.5, up to 90 min) worked out at 12 µg/mL. In addition, in data set [4], the AUC0-2 hr is 51.205 µg·h/mL, the AUC0-4 hr is 103.281 µg·h/mL, the AUC0-24 hr is 434.380 µg·h/mL and the Cmax was 29891 ng/mL. The Tmax in data set [4] is 0.50 h. In addition, in data set [5] (10 mg/kg orally), the Cmax is 560 ng/mL and the AUC(0-t) worked out at 3.9 µg·h/mL. For the same compound, in data set [5] (200 mg/kg orally), the concentration peaked (Cmax) at 2000 ng/mL and the AUC(0-t) is 17 µg·h/mL. Further, in data set [6], the AUC0-2 hr is 100.045 µg·h/mL, the AUC0-4 hr was 211.597 µg·h/mL, the AUC0-24 hr is 1148.003 µg·h/mL and the Cmax was 60182 ng/mL. Also, the Tmax in data set [6] was 2 h.

The term AUC(0-inf) denotes total exposure, with the tail of the curve extrapolated. The half-life is the time in which the quantity being followed falls by half. As to `CCc1cnc(N2CCC(c3nc(COc4ccc(-n5cnnn5)cc4)cs3)CC2)nc1` [Compound A, 5-ethyl-2-{4-[4-(4-tetrazol-1-yl-phenoxymethyl)-thiazol-2-yl]-piperidin-1-yl}-pyrimidine], in data set [7] (setting [9]), the AUC(0-inf) was 6.5 µg·h/mL, the Tmax worked out at 5.4 h, the half-life was 14 h and the AUC(0-t) is 4.15 µg·h/mL. For the same compound, the Cmax in data set [7] (SDD tablet 25 mg orally once daily, subjects with pre-diabetes) worked out at 346 ng/mL. In data set [7] (setting [10]), the total exposure AUC(0-inf) worked out at 24.6 µg·h/mL, the Cmax was found to be 1150 ng/mL, the Tmax is 2.8 h and the half-life was 18.3 h. Further, in data set [7] (setting [10]), the AUC(0-t) amounted to 13.3 µg·h/mL. Besides, in data set [7] (setting [11]), the AUC(0-inf) was found to be 45 µg·h/mL, the concentration peaked (Cmax) at 2330 ng/mL, the Tmax worked out at 2.2 h and the half-life was 15.3 h. In addition, the AUC(0-t) in data set [7] (setting [11]) was determined as 30 µg·h/mL. In addition, in data set [7] (setting [12]), the concentration peaked (Cmax) at 3560 ng/mL, the Tmax amounted to 3.3 h and the AUC(0-t) amounted to 57.9 µg·h/mL. In addition, the “fasting plasma glucose (FPG) and glucose excursion following MMTT and OGTT” value in data set [8] (studies conducted to date) is listed as “consistently lowered”. Also, the “reduction in glucose, net of placebo” value in data set [8] (subsets of subjects with the greatest degree of glucose intolerance at baseline, pooled, any dose, Phase 1c (study C)) is “up to 77%”.
